As a reminder, the pIC50 is the negative decadic logarithm of the IC50, by convention in mol/L.

Series [1] concerns NF-κB. Briefly: NF-κB dependent luciferase reporter in 293T cells. The conditions noted are these: 293T NF-κB luciferase, drug treatment 7 hr. In kind it is cell-based. The source says:
FIG. 21C illustrates 293T cells stably expressing NF-κB dependent luciferase gene that show a dose dependent reduction in bioluminescence with drug treatment (7 hr) measured by luminometer.
Activation of NF-κB is regulated by IκB proteins. IκB-α ubiquitination and degradation is an important step for the nuclear localization of NF-kB and activation of its transcriptional program.

The test system of series [2] is ES2 cells. Briefly: Annexin V apoptosis flow cytometry, ES2 cells. In kind it is cell-based, human. The note with it: ES2, 12 hr. A general note: A flow cytometer gives signals particle by particle.
Protocol: FIG. 7D illustrates surface PS staining of 10^5 ES2 cells treated with compounds for 12 hr and re-suspended in binding buffer and labeled with Annexin V-PE and 7-AAD at RT for 15 min and analyzed by flow cytometry (Becton Dickinson, Mountain View, CA).
FIG. 16D illustrates ES2 cells were treated with compounds at indicated doses for 12 hr then re-suspended in 100 μL binding buffer with 5 μL of Annexin V-PE and 5 μL of 7-AAD to examine early apoptosis. After a 15 min incubation at RT, the cells were analyzed by flow cytometry using a FACSCalibur and CellQuest software.
Series [3] has as its system ES2-luc xenograft. In words: ES2-luc intraperitoneal xenograft in nude mice. In kind it is in vivo. The conditions noted are these: 10 mg/Kg every 3 days, total 12 doses. Here is the method:
ES2 is a human cell line derived from a high grade ovarian clear cell carcinoma (42). The efficacy of RA375 against the ES2 xenograft model expressing luciferase (ES2-luc) was tested. Nude female mice were inoculated with ES2-luc cells into the peritoneal cavity. After 3 days the mice were imaged for their basal luminescence activity and randomized into two groups (n=8). […] Mice were imaged after the first and second week of treatment for their luciferase activity to assess tumor burden.
Briefly, female nude mice were injected interperitoneally (i.p.) with ES2-luc cells (1×10^6) in 100 μL PBS and the basal luminescence was measured after three days using IVIS 200 imaging after injecting luciferin. […] Over the treatment period mice were imaged every week for bioluminescence to monitor tumor growth.
(§1) Tumor Studies: Female C57BL6 or Nude mice were inoculated with 10^6 ES2-Luciferase cells i.p. in 100 uL PBC, or ID8-VegfDefb29 syngeneic mouse model of ovarian cancer expressing luciferase (62) i.p. in 100 μL PBS. At day 3, mice were imaged for basal level luminescence activity with a Xenogen IVIS 200 after injection i.p. with luciferin (0.3 mg in 100 water). Mice were randomized into two groups (n=8) and treated i.p. with compounds or vehicle (25% (w/v) β-Hydroxypropylcyclodextrin in water), and imaged again on days 7 and 14. RA375 was administered i.p. at 10 mg/Kg.

The test system of series [4] is OVCAR3. The note with it: human.
The test system of series [5] is SKOV3.
Protocol: (§2) Cell lines and cytotoxicity assays: All cell lines were obtained from the American Type Culture Collection (ATCC) and cultured in the specified medium supplemented with 10% fetal bovine serum, 100 IU/mL penicillin, and 100 μg/mL streptomycin at 37° C. in a humidified 5% CO2/95% air incubator. […] To assess drug cytotoxicity, cells were seeded at 2,500 cells/well (10,000 cells/well for MM lines) in 100 μL medium in 96-well plate and after 24 treated with compounds for 72 h, incubated according to the manufacturer's protocol with the Thiazolyl Blue Tetrazolium Bromide (Sigma, M2128) and A570 measured using a Benchmark Plus microplate spectrophotometer (BIO-RAD). IC50 data was analyzed by Graphpad Prism software.
The subject of series [6] is HS578T. The conditions noted are these: human.
For series [7], the system named is MCF7. The conditions noted are these: human.
The test system of series [8] is NF-κB. The note with it: 293T cells stably expressing NFkB-Luc reporter; previously observed (13); read-out: IC50 of NF-κB signaling inhibition; cited from earlier work.
Series [9] has as its system SSC25. Briefly: MTT cytotoxicity assay, SSC25. The conditions noted are these: Table 3, 48 hr, Head & Neck (HPV −ve). It is filed as cell-based.
Protocol: as §2
The nature of series [10]: Initial toxicity testing in female Balb/c mice. In kind it is in vivo. Here is the method:
Initial toxicity testing was performed in female Balb/c mice with RA375. Groups of mice (n=3) were injected intra peritoneally (i.p.) with a single dose of RA375 (5, 10, 20, 40, 60, 100 mg/Kg in 25% β-hydroxypropyl cyclodextrin) and endpoints evaluated included clinical observation and body weight for one week.

For series [11], the system named is proteasome (4UbFL reporter). In words: 4UbFL reporter in leg muscle of BALB/c mice. The conditions noted are these: single i.p. administration to mice. In kind it is in vivo. Here is the method:
FIG. 9B illustrates BALB/c mice electroporated with 4UbFL plasmid (10 μg/mouse) in the leg muscle and the basal luminescence was recorded after 48 hr. Groups of mice (n=5) were treated with different compound (40 mg/Kg) or vehicle alone (25% (w/v) β-Hydroxypropylcyclodextrin in water). Mice were imaged for bioluminiscence activity using IVIS instrument at 4, 24, 48, 72 and 96 hr.
To test for proteasome inhibition by RA375 in vivo, an electroporation delivery was employed to transfect the leg muscle of mice with the 4UbFL reporter plasmid. […] At two days post electroporation of the 4UbFL DNA, mice were imaged, and base line luminescence recorded. […] After 4 h, 24 h, 48 h, 72 h and 96 h post treatment mice were again imaged, and bioluminescence was quantified.
Electroporation Method: A patch of CD1 or Balb/c mouse leg was shaved of hair and 10 μg 4Ub-FL plasmid in 20 μL of PBS was injected into the quadriceps femoralis muscle followed immediately by injection of the 2 Needle Array to 5 mm depth encompassing the injection site and square wave electroporation (ElectroSquarePorator 833, BTX-2 Needle array 5 mm gap, Harvard apparatus) delivered as eight pulses at 106V for 20 ms with 200 ms intervals. […] Equally sized areas were analyzed using Living Image 2.20 software. […]

The nature of series [12]: in vivo. It is filed as in vivo, C57BL/6 mice. The conditions noted are these: female, C57BL/6, mouse, in vivo; suggested from toxicities at higher dose; read-out: MTD in tumor-bearing animals. Here is the method: To assess therapeutic efficacy the ID8-VegfDefb29 cell line was utilized in a syngeneic mouse model of ovarian cancer expressing luciferase (62). ID8 was first derived from spontaneous malignant transformation of C57BL/6 mouse ovarian surface epithelial cells in vitro (69). ID8-Vegf Defb29 cells represent a more aggressive variant of ovarian cancer in which VEGF provides vascular growth which is augmented by the presence of DEFB29 (62). C57BL/6 mice were injected i.p. with ID8-VegfDefb29 cells stably expressing firefly luciferase (0.5×10^6 cells) in PBS (100 μL). After 72 hrs, mice were imaged for their basal luminescence levels using an IVIS200 imager. Mice with visible luminescence were randomized into equal groups including vehicle (n=8), RA414 (3 mg/Kg, n=8), RA414 (10 mg/Kg, n=8) and treated every three days for up to 3 weeks. Mice were imaged every week to measure bioluminescence expressed by tumor after administration of luciferin. […] On day 24 two mice were sacrificed after collection of ascites, and the remainder required euthanasia on day 31 (FIGS. 17A and 17B). Administration of RA414 at 10 mg/kg (3 doses delivered every three days) regressed the tumor completely in 50% of the mice with less than 10% weight loss. […] This is consistent with proteasome inhibition within the ascites cells by the […] RA414 treatment regimen.
as §1

The conditions of series [13]: PEG400: Cremophor: Tween40 vs b-HPCD.

pIC50: −log10 of the molar value.

For the compound `C[C@H]1/C(=C\c2ccc([N+](=O)[O-])cc2)C(=O)/C(=C/c2ccc([N+](=O)[O-])cc2)CN1C(=O)[C@@H](N)Cc1ccccc1`, the “decrease in NF-κB activity, relative potency” value in series [1] is listed as “more potent than for RA183”. Further, the “surface display of Annexin V versus RA183” value in [2] was “more potently activated a biomarker of early apoptosis”. Further, the survival entry in series [3] is “significantly increased survival”. Besides, the “tumor burden (bioluminescence)” value in series [3] is given as “significantly reduced tumor burden”. The pIC50 in [4] is 7.16; in [6] it was 7.40; in [7], 6.60. The “fold more cytotoxic than RA413R” value in series [5] came out at 4 fold.
`N[C@@H](Cc1ccccc1)C(=O)N1C/C(=C\c2ccc([N+](=O)[O-])cc2)C(=O)/C(=C/c2ccc([N+](=O)[O-])cc2)C1` [RA183, reference compound]: the pIC50 in series [8] is 7.00.
`O=C(CCl)N[C@@H](Cc1ccccc1)C(=O)N1C/C(=C\c2ccc([N+](=O)[O-])cc2)C(=O)/C(=C/c2ccc([N+](=O)[O-])cc2)C1` [RA375] showed a negative logarithm of the IC50 (pIC50) in series [9] of 6.72. The “toxicity after repeated dosing” value in series [10] (40 mg/Kg on alternate days for two weeks) was “no observable toxicities or weight loss”. In addition, the “adverse effects after single dose” value in series [10] (female Balb/c, single i.p. dose 5-100 mg/Kg, one week observation) is reported as “No adverse effects were noted”. In addition, the “duration of proteasome inhibition in muscle” value in series [11] is reported as greater than 72 h.
With `CC1/C(=C\c2ccc([N+](=O)[O-])cc2)C(=O)/C(=C/c2ccc([N+](=O)[O-])cc2)CN1C(=O)[C@H](Cc1ccccc1)NC(=O)CCl` (stereo partly drawn) [RA414], the MTD in [12] amounted to 3 mg/kg. The “solubility in formulation vehicles” value in series [13] is “soluble in the PEG system only”.

The record behind these values is patent US12673918B2, “Small molecule RPN13 inhibitors with antitumor properties” (The Johns Hopkins University, priority 2019, dated 2026).
